Literature values, collected in patent US20050203105A1, “Composition and method for controlling alcohol-induced facial flushing in susceptible humans” (priority 2003, published 2005).
Like-named read-outs stand apart in the source and are kept apart here. Each block holds one compound with its values, some of them ahead of it.

What was measured:
[1] = for Half-life: increased in renal impairment (cimetidine: also hepatic impairment and the elderly); for Elimination, Urine, Unchanged, Oral / effect of food on absorption: oral
H1 receptor = H1 receptor (Homo sapiens, UniProt P35367)
muscarinic receptors = tested on: muscarinic receptors; set-up: key: +++++ = Very high; +++ = high; ++ = moderate; + = low; ± = low to none
[2] = tested on: flushing responses to red wine, chocolate and hot water; details: one patient with carcinoid syndrome; two weeks of oral prior treatment
[3] = tested on: potassium rectifier currents
[4] = tested on: alcohol-induced rosacea flushing; details: subcutaneous pretreatment; 360 ml of 6% ethanol; patients with rosacea
ethanol intoxication = details: intravenous
QT interval = details: in vivo
[5] = for time to peak plasma levels: oral
alcohol-induced flushing [6] = details: for rise in skin oxygen tension after sherry: oral, 30 minutes before 30-50 ml of sherry
[7] = dose range of 10 to 40 mg
[8] = given with an MAOI
alcohol-induced flushing [9] = details: for Facial flushing: 0.64 gm orally one hour before ethanol

Chain of H1 receptor (P35367 whole entry): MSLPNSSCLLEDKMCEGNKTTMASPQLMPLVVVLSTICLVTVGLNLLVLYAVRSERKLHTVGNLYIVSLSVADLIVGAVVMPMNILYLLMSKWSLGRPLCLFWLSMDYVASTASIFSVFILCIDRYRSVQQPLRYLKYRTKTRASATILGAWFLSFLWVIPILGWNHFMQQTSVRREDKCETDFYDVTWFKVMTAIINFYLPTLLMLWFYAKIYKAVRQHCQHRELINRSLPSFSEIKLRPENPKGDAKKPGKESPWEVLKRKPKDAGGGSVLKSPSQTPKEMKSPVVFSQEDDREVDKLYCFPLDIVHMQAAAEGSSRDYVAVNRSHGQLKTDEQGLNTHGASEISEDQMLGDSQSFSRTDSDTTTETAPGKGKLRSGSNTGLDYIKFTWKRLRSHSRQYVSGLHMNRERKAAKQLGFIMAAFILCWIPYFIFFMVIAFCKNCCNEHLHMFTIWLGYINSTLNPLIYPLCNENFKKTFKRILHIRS

Structure (SMILES): CNC(=C[N+](=O)[O-])NCCSCc1csc(CN(C)C)n1 [Nizatidine]
Peak Plasma Concentration ([1]; 150 mg dose, dose dependent): 0.7 to 1.8 µg/mL
Peak Plasma Concentration ([1]; 300 mg dose, dose dependent): 1.4 to 3.6 µg/mL
Plasma concentrations 12 hours after administration ([1]; 12 hours after administration): less than 10 mcg/L
Bioavailability ([1]; in vivo): >90%
Elimination, Metabolized ([1]; in vivo): <18%
Protein Binding ([1]; in vivo): ≈35%
Time to Peak Plasma Concentration ([1]; in vivo): 0.5 to 3 h
Volume of Distribution ([1]; in vivo): 0.8 to 1.5 L/kg
Half-life [1]: 1-2^3 hrs
Elimination, Urine, Unchanged, Oral [1]: 60%

Structure (SMILES): Clc1cccc(Cl)c1N=C1NCCN1 [clonidine]
flushing response to red wine, chocolate and hot water challenges [2]: blocked the flushing responses to red wine and chocolate, but not to hot water

Structure (SMILES): CCOC(=O)N1CCC(=C2c3ccc(Cl)cc3CCc3cccnc32)CC1 [Loratadine, ethyl 4-(8-chloro-5,6-dihydro-11H-benzo[5,6]cyclohepta[1,2-b]pyridin-11-ylidene)-1-piperidinecarboxylate]
potassium rectifier currents [3]: inhibit the potassium rectifier currents

Structure (SMILES): C=CCN1CC[C@]23c4c5ccc(O)c4O[C@H]2C(=O)CC[C@@]3(O)[C@H]1C5 [naloxone]
alcohol-induced rosacea flushing (AIRF) [4]: blocked
impairment by ethanol (typing errors) (ethanol intoxication; CPAF group): reversed this effect
impairment by ethanol (typing errors) (ethanol intoxication; non-flushing group): no effect

Structure (SMILES): COc1ccc(CCN2CCC(Nc3nc4ccccc4n3Cc3ccc(F)cc3)CC2)cc1 [Astemizole]
QT prolongation, ventricular arrhythmias, torsade de pointes (QT interval): can cause QT interval prolongation/ventricular arrhythmias
half-life, distribution phase ([5]; biphasic): 20 h
protein bound ([5]; in vivo): 96.7%
time to peak plasma levels [5]: ≤ 1 h
reduction of absorption when taken with food ([5]; with food): 60%

Structure (SMILES): CN1CCC(=C2c3ccccc3CCc3cccnc32)CC1 [Azatadine]
Antihistaminic activity (H1 receptor): ++
Anticholinergic activity (muscarinic receptors): ++

Structure (SMILES): CN/C(=N/CCSCc1nc[nH]c1C)NC#N [Cimetidine]
Peak Plasma Concentration ([1]; 300 mg dose, dose dependent): 0.7 to 3.2 µg/mL
Elimination, Urine, Unchanged, IV ([1]; IV): 75%
Peak Plasma Concentration ([1]; IV): (3.5-7.5 IV) mcg/ml
Bioavailability ([1]; in vivo): 60-70%
Elimination, Metabolized ([1]; in vivo): 30-40%
Protein Binding ([1]; in vivo): 13-25%
Time to Peak Plasma Concentration ([1]; in vivo): 0.75 to 1.5 h
Volume of Distribution ([1]; in vivo): 0.8 to 1.2 L/kg
removal by hemodialysis or peritoneal dialysis ([1]; in vivo): not significantly removed by hemodialysis or peritoneal dialysis
Half-life [1]: ≈2^2 hrs
Elimination, Urine, Unchanged, Oral [1]: 48%
effect of food on absorption [1]: unaffected by food
flushing response to red wine, chocolate and hot water challenges [2]: blocked the flushing responses to red wine and chocolate, but not to hot water
rise in skin oxygen tension after sherry (alcohol-induced flushing [6]): did noticeably reduce the increase in oxygen concentration
effect on hepatic oxidative metabolism (cytochrome P450 enzymes): inhibits hepatic oxidative metabolism by most cytochrome P450 enzymes

Structure (SMILES): Clc1ccc2c(c1)CCc1cccnc1C2=C1CCNCC1 [desloratadine, descarboethoxyloratadine]
dose dependence of pharmacokinetics [7]: independent of dose

Structure (SMILES): CN(C)CCC(c1ccc(Cl)cc1)c1ccccn1 (centres unmarked) [Chlorpheniramine]
flushing response to red wine, chocolate and hot water challenges [2]: did not affect the flushing response
sedative action of absorbed alcohol (alcohol-induced flushing [6]; in vivo): potentiates the sedative action of the alcohol absorbed
rise in skin oxygen tension after sherry (alcohol-induced flushing [6]): did not affect the rise in skin oxygen tension

Structure (SMILES): CNC(=C[N+](=O)[O-])NCCSCc1ccc(CN(C)C)o1 [Ranitidine]
Bioavailability ([1]; IM): (90-100 IM) %
Peak Plasma Concentration ([1]; IM): (0.58 IM) mcg/ml
Time to Peak Plasma Concentration ([1]; IM): (0.25 IM) hrs
Elimination, Urine, Unchanged, IV ([1]; IV): 68-79%
Bioavailability ([1]; in vivo): 50-160%
Elimination, Metabolized ([1]; in vivo): <10%
Protein Binding ([1]; in vivo): 15%
Time to Peak Plasma Concentration ([1]; in vivo): 1 to 3 h
Volume of Distribution ([1]; in vivo): 1.2 to 1.9 L/kg
Half-life [1]: 2-3^3 hrs
Peak Plasma Concentration ([1]; no dose given, dose dependent): 0.44 to 0.55 µg/mL
Elimination, Urine, Unchanged, Oral [1]: 30-35%
effect of food on absorption [1]: not significantly impaired by the administration of food
effect on hepatic oxidative metabolism (cytochrome P450 enzymes): do not seem to interfere with hepatic oxidation

Structure (SMILES): NC(N)=Nc1nc(CSCCC(N)=NS(N)(=O)=O)cs1 [Famotidine]
Peak Plasma Concentration ([1]; 40 mg dose, dose dependent): 0.076 to 0.1 µg/mL
Elimination, Urine, Unchanged, IV ([1]; IV): 65-70%
Bioavailability ([1]; in vivo): 40-45%
Elimination, Metabolized ([1]; in vivo): 30-35%
Protein Binding ([1]; in vivo): 15-20%
Time to Peak Plasma Concentration ([1]; in vivo): 1 to 3 h
Volume of Distribution ([1]; in vivo): 1.1 to 1.4 L/kg
Half-life [1]: 2.5-3.5^3 hrs
Elimination, Urine, Unchanged, Oral [1]: 25-30%
effect on hepatic oxidative metabolism (cytochrome P450 enzymes): do not seem to interfere with hepatic oxidation

Structure (SMILES): CC(=O)Oc1ccccc1C(=O)O [aspirin, acetylsalicylic acid]
Body sway (alcohol-induced flushing [9]; both groups of subjects): reduced
alcohol induced increase in heart rate (alcohol-induced flushing [9]; flushing group): reduced
Facial flushing (alcohol-induced flushing [9]; flushing group): markedly reduced
Facial flushing (alcohol-induced flushing [9]; non-flushing Occidentals): slightly increased

Structure (SMILES): Cc1ccc(/C(=C\CN2CCCC2)c2ccccn2)cc1 [Triprolidine]
Antihistaminic activity (H1 receptor): ++ to +++
Anticholinergic activity (muscarinic receptors): ++

The next lines start with results.

Antihistaminic activity (H1 receptor): ++ to +++
Anticholinergic activity (muscarinic receptors): +++
Structure (SMILES): CN1CCC(CN2c3ccccc3Sc3ccccc32)C1 (centres unmarked) [Methdilazine]

Antihistaminic activity (H1 receptor): + to ++
Anticholinergic activity (muscarinic receptors): ±
Structure (SMILES): CN(C)CCN(Cc1ccccc1)c1ccccn1 [Tripelennamine]

Antihistaminic activity (H1 receptor): ++ to +++
Anticholinergic activity (muscarinic receptors): +++
Structure (SMILES): CC(CN(C)C)CN1c2ccccc2Sc2ccccc21 (centres unmarked) [Trimeprazine]

Antihistaminic activity (H1 receptor): + to ++
Anticholinergic activity (muscarinic receptors): +++
Structure (SMILES): CN(C)CCOC(c1ccc(Cl)cc1)c1ccccn1 (centres unmarked) [Carbinoxamine]

dose eliminated via the urine ([5]; in vivo): 40%
elimination half-life ([5]; in vivo): 20 h
fecal excretion of the dose ([5]; in vivo): 60%
time to peak plasma levels [5]: 2 h
Structure (SMILES): CC(C)(C)c1ccc(C(O)CCCN2CCC(C(O)(c3ccccc3)c3ccccc3)CC2)cc1 (centres unmarked) [Terfenadine]
single overdose associated with serious cardiovascular adverse events (QT interval): ≥ 360 mg

interaction with an MAOI [8]: may cause severe hypotension
Structure (SMILES): CN(C)CC[C@@H](c1ccc(Cl)cc1)c1ccccn1 [Dexchlorpheniramine]

Antihistaminic activity (H1 receptor): ++
Anticholinergic activity (muscarinic receptors): ++
Structure (SMILES): CN1CCC2=C(C1)C(c1ccccc1)c1ccccc12 (centres unmarked) [Phenindamine]

Antihistaminic activity (H1 receptor): +++
Anticholinergic activity (muscarinic receptors): ++
Structure (SMILES): CN(C)CCC(c1ccc(Br)cc1)c1ccccn1 (centres unmarked) [Brompheniramine]
